# According to ChEMBL document CHEMBL5244281, “Tackling multidrug-resistant Staphylococcus aureus by natural products and their analogues acting as NorA efflux pump inhibitors” (Bioorg Med Chem, 2023):
# Assays:
# Candida albicans [1] = test: Antifungal activity against Candida albicans NEWP031 assessed as bacterial growth inhibition incubated for 24 hrs by resazurin based microdilution assay; type: functional
# Staphylococcus aureus [2] = test: Antibacterial activity against Staphylococcus aureus SA10 assessed as bacterial growth inhibition incubated for 24 hrs by resazurin based microdilution assay; type: functional
# [3] = target: T1, Quinolone resistance protein NorA (Staphylococcus aureus) (UniProt P0A0J7); test: Potentiation of EtBr-induced inhibition of NorA efflux in Staphylococcus aureus 1199B overexpressing NorA assessed as reduction in EtBr MIC at 256 ug/ml incubated for 24 hrs by resazurin based assay (Rvb= 32 ug/ml); conditions: dose 256.0 µg/ml
# T1 sequence (whole entry): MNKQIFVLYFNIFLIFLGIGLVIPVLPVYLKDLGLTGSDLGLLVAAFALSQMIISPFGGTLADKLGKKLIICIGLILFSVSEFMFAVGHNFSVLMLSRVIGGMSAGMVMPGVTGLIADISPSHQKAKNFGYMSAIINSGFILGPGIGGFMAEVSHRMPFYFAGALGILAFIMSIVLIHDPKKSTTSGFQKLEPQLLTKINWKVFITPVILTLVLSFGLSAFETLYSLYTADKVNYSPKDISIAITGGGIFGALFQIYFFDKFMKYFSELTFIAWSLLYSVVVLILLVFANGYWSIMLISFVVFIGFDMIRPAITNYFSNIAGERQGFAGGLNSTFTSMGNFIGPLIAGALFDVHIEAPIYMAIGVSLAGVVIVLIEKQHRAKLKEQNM
# Staphylococcus aureus [4] = test: Antibacterial activity against Staphylococcus aureus ATCC 25923 assessed as bacterial growth inhibition incubated for 24 hrs by resazurin based microdilution assay; type: functional
# Staphylococcus aureus [5] = test: Antibacterial activity against Staphylococcus aureus 1199 assessed as bacterial growth inhibition incubated for 24 hrs by resazurin based microdilution assay; type: functional
# Staphylococcus aureus [6] = test: Antibacterial activity against norfloxacin resistant Staphylococcus aureus 1199B overexpressing NorA assessed as bacterial growth inhibition incubated for 24 hrs by resazurin based microdilution assay; type: functional
# [7] = target: T1, Quinolone resistance protein NorA (Staphylococcus aureus); conditions: 1199B, dose 128.0 µg/ml, time 24.0 hrs
# Escherichia coli [8] = test: Antibacterial activity against Escherichia coli ATCC […] assessed as bacterial growth inhibition incubated for 24 hrs by resazurin based microdilution assay; type: functional
# [9] = target: T1, Quinolone resistance protein NorA (Staphylococcus aureus); test: Potentiation of EtBr-induced inhibition of NorA efflux pump in Staphylococcus aureus 1199B overexpressing NorA efflux pump assessed as reduction in EtBr MIC at 1/8 times of MIC by resazurin based assay (Rvb= 512 ug/ml)
# Escherichia coli [10] = test: Potentiation of gentamicin-induced antibacterial activity against Escherichia coli 06 assessed as gentamicin MIC at 1/8 times of MIC (Rvb= 322 ug/ml); type: functional
# Staphylococcus aureus [11] = test: Antibacterial activity against norfloxacin resistant Staphylococcus aureus 1199B overexpressing NorA assessed as bacterial growth inhibition; type: functional
# Staphylococcus aureus [12] = test: Antibacterial activity against norfloxacin resistant Staphylococcus aureus 1199 assessed as bacterial growth inhibition; type: functional
# Enterococcus faecium = test: Antimicrobial activity against Enterococcus faecium ATCC 700221 assessed as bacterial growth inhibition incubated for 18 hrs by broth microdilution assay; type: functional
# Enterococcus faecalis = test: Antimicrobial activity against Enterococcus faecalis ATCC 29212 assessed as bacterial growth inhibition incubated for 18 hrs by broth microdilution assay; type: functional
# Staphylococcus aureus [13] = test: Antimicrobial activity against Staphylococcus aureus BAA-44 assessed as bacterial growth inhibition incubated for 18 hrs by broth microdilution assay; type: functional
# Staphylococcus aureus [14] = test: Antimicrobial activity against Staphylococcus aureus ATCC 29213 assessed as bacterial growth inhibition incubated for 18 hrs by broth microdilution assay; type: functional
# Escherichia coli [15] = test: Antimicrobial activity against Escherichia coli ATCC 25922 assessed as bacterial growth inhibition incubated for 18 hrs by broth microdilution assay; type: functional
# Staphylococcus aureus [16] = test: Antimicrobial activity against Staphylococcus aureus ATCC 43300 assessed as bacterial growth inhibition incubated for 18 hrs by broth microdilution assay; type: functional
# Klebsiella pneumoniae = test: Antimicrobial activity against Klebsiella pneumoniae 1213-2 assessed as bacterial growth inhibition incubated for 18 hrs by broth microdilution assay; type: functional
# Candida albicans [17] = test: Antimicrobial activity against Candida albicans ATCC 10231 assessed as […] growth inhibition incubated for 24 hrs by microdilution method; type: functional
# Staphylococcus aureus [18] = test: Antibacterial activity against Staphylococcus aureus 1199B overexpressing NorA efflux protein assessed as bacterial growth inhibition incubated for 24 hrs by microdilution method; type: functional
# [19] = target: T1, Quinolone resistance protein NorA (Staphylococcus aureus); conditions: 1199B
# Escherichia coli [20] = test: Antibacterial activity against Escherichia coli ATCC 25922 assessed as bacterial growth inhibition incubated for 24 hrs by microdilution method; type: functional
# Staphylococcus aureus [21] = test: Antibacterial activity against wild type Staphylococcus aureus ATCC 25923 assessed as bacterial growth inhibition incubated for 24 hrs by microdilution method; type: functional
# [22] = target: T1, Quinolone resistance protein NorA (Staphylococcus aureus); test: Inhibition of NorA efflux pump in Staphylococcus aureus 1199B overexpressing NorA efflux pump assessed as decrease in ciprofloxacin MIC at 1/4 times MIC and measured for 45 mins in presence of ciprofloxacin by fluorimetric analysis (Rvb=8 ug/ml)
# Staphylococcus aureus [23] = test: Antibacterial activity against Staphylococcus aureus 1199B overexpressing NorA efflux pump assessed as bacterial growth inhibition incubated for 18 hrs by broth dilution method; type: functional
# Staphylococcus aureus [24] = test: Antibacterial activity against Staphylococcus aureus K1758 with NorA knockout assessed as bacterial growth inhibition incubated for 18 hrs by broth dilution method; type: functional
# [25] = target: T1, Quinolone resistance protein NorA (Staphylococcus aureus); test: Inhibition of NorA efflux pump in Staphylococcus aureus 1199B overexpressing NorA efflux pump assessed as decrease in norfloxacin MIC at 1/4 times MIC and measured for 45 mins in presence of norfloxacin by fluorimetric analysis (Rvb=32 ug/ml)
# [26] = target: T1, Quinolone resistance protein NorA (Staphylococcus aureus); test: Inhibition of NorA efflux pump in methicillin-resistant Staphylococcus aureus clinical isolate assessed as decrease in ciprofloxacin MIC and measured for 20 mins in presence of ciprofloxacin by spectrofluorimetric analysis (Rvb=128 ug/ml)
# Staphylococcus aureus [27] = test: Synergistic antibacterial activity against methicillin-resistant Staphylococcus aureus clinical isolate assessed as fractional inhibitory concentration index in presence of ciprofloxacin by checkerboard assay; type: functional
# Staphylococcus aureus [28] = test: Antibacterial activity against methicillin-resistant Staphylococcus aureus clinical isolate assessed as bacterial growth inhibition by broth dilution method; type: functional
# [29] = target: T1, Quinolone resistance protein NorA (Staphylococcus aureus); test: Inhibition of NorA efflux pump in methicillin-resistant Staphylococcus aureus clinical isolate assessed as EtBr MIC using EtBr as substrate at 64 ug/ml and measured for 20 mins by spectrofluorimetric analysis (Rvb=[…] ug/ml); conditions: dose 64.0 µg/ml
# Staphylococcus aureus [30] = test: Antibacterial activity against Staphylococcus aureus K2068 overexpressing mepA gene assessed as bacterial growth inhibition incubated for 24 hrs by resazurin based microdilution assay; type: functional
# Staphylococcus aureus [31] = test: Antibacterial activity against Staphylococcus aureus IS-58 overexpressing TetK efflux protein assessed as bacterial growth inhibition incubated for 24 hrs by resazurin based microdilution assay; type: functional
# Staphylococcus aureus [32] = test: Antibacterial activity against wild type Staphylococcus aureus ATCC 25923 assessed as bacterial growth inhibition incubated for 24 hrs by resazurin based microdilution assay; type: functional
# Staphylococcus aureus [33] = test: Antibacterial activity against Staphylococcus aureus RN4220 overexpressing […] efflux protein assessed as bacterial growth inhibition incubated for 24 hrs by resazurin based microdilution assay; type: functional
# Staphylococcus aureus [34] = test: Antibacterial activity against Staphylococcus aureus K4414 overexpressing qacA/B gene assessed as bacterial growth inhibition incubated for 24 hrs by resazurin based microdilution assay; type: functional
# Staphylococcus aureus [35] = test: Antibacterial activity against Staphylococcus aureus 1199B overexpressing NorA efflux protein assessed as bacterial growth inhibition incubated for 24 hrs by resazurin based microdilution assay; type: functional
# Staphylococcus aureus [36] = test: Antibacterial activity against Staphylococcus aureus K4100 overexpressing qacC gene assessed as bacterial growth inhibition incubated for 24 hrs by resazurin based microdilution assay; type: functional
# [37] = target: T1, Quinolone resistance protein NorA (Staphylococcus aureus); test: Potentiation of ciprofloxacin-mediated inhibition of NorA efflux pump in Staphylococcus aureus 1199B overexpressing NorA efflux pump assessed as reduction in ciprofloxacin MIC (Rvb= […] ug/ml)
structure (smiles),measurement,setting,value
CC(C)CCCC(C)CCO (stereo not given),MIC,Candida albicans [1],2050 µg/mL
same,MIC,Staphylococcus aureus [2],≥ 1020 µg/mL
same,MIC,[3],16 µg/mL
same,MIC,Staphylococcus aureus [4],≥ 1020 µg/mL
same,MIC,Staphylococcus aureus [5],≥ 1020 µg/mL
same,MIC,Staphylococcus aureus [6],≥ 1020 µg/mL
same,MIC,[7],32 µg/mL
same,MIC,Escherichia coli [8],2050 µg/mL
C[C@H]1[C@H](C)CC[C@]2(C)CC[C@]3(C)C(=CC[C@@H]4[C@@]5(C)CC[C@H](O)C(C)(C)[C@@H]5CC[C@]43C)[C@H]12,MIC,[9],406 µg/mL
same,MIC,Escherichia coli [10],203 µg/mL
CC1=CCC(C(C)C)CC1 (stereo not given),MIC,Staphylococcus aureus [11],> 1020 µg/mL
same,MIC,Staphylococcus aureus [12],> 1020 µg/mL
CN(CC[C@H](N)CC(=O)N[C@H]1C=C[C@H](n2ccc(N)nc2=O)O[C@@H]1C(N)=O)C(=N)N,MIC,Enterococcus faecium,50 µg/mL
same,MIC,Enterococcus faecalis,12.5 µg/mL
same,MIC,Staphylococcus aureus [13],12.5 µg/mL
same,MIC,Staphylococcus aureus [14],6.25 µg/mL
same,MIC,Escherichia coli [15],12.5 µg/mL
same,MIC,Staphylococcus aureus [16],12.5 µg/mL
same,MIC,Klebsiella pneumoniae,50 µg/mL
COc1ccc(/C=C/[C@@H]2c3c(cc(O)cc3OC)C[C@H]3c4ccc(O)cc4O[C@H](c4ccccc4)[C@@H]23)cc1,MIC,Candida albicans [17],161 µg/mL
same,MIC,Staphylococcus aureus [18],> 1020 µg/mL
same,MIC,[19],16 µg/mL
same,MIC,Escherichia coli [20],> 1020 µg/mL
same,MIC,Staphylococcus aureus [21],> 1020 µg/mL
O=C(/C=C/c1ccco1)N/N=C/c1ccc(Br)o1,MIC,[22],0.5 µg/mL
same,MIC,Staphylococcus aureus [23],64 µg/mL
same,MIC,Staphylococcus aureus [24],64 µg/mL
same,MIC,[25],1 µg/mL
CCN(CC)C(=O)/C=C/c1ccc(OC(C)=O)c(OC)c1,MIC,[26],32 µg/mL
same,fractional inhibitory concentration index (FICI),Staphylococcus aureus [27],0.325
same,MIC,Staphylococcus aureus [28],> 125 µg/mL
same,MIC,[29],4 µg/mL
COc1ccc(/C=C/C(=O)c2cc(O)c(O)c(OC)c2)cc1OC,MIC,Staphylococcus aureus [30],100 µg/mL
same,MIC,[19],16 µg/mL
same,MIC,Staphylococcus aureus [31],100 µg/mL
same,MIC,Staphylococcus aureus [32],100 µg/mL
same,MIC,Staphylococcus aureus [33],100 µg/mL
same,MIC,Staphylococcus aureus [34],100 µg/mL
same,MIC,Staphylococcus aureus [35],100 µg/mL
same,MIC,Staphylococcus aureus [36],100 µg/mL
COc1cc(O)cc2c1[C@@H](/C=C/c1ccc(O)cc1)[C@@H]1[C@@H](c3ccccc3)Oc3cc(O)ccc3[C@@H]1O2,MIC,Candida albicans [17],> 1020 µg/mL
same,MIC,Staphylococcus aureus [18],> 1020 µg/mL
same,MIC,Escherichia coli [20],> 1020 µg/mL
same,MIC,Staphylococcus aureus [21],> 1020 µg/mL
CC(/C=C/C(=O)N1CCCC1)=C\c1ccc2c(c1)CCC(C)O2 (stereo not given),MIC,[37],3.12 µg/mL
